Data taken from patent US9963445B2, “Chemical compounds” (SYNGENTA PARTICIPATIONS AG, priority 2013, dated 2018).

Experiments:
Type in all cases: in vivo
[1] = test system: Abutilon theophrasti; test: Pre-emergence herbicidal activity, glasshouse pot test; details: pre-emergence spray, rate 1000 g/ha, evaluated after 13 days, scale 0-5
Procedure: (§1) Seeds of a variety of test species were sown in standard soil in pots. After cultivation for one day (pre-emergence) under controlled conditions in a glasshouse (at 24/16° C., day/night; 14 hours light; 65% humidity), the plants were sprayed with an aqueous spray solution derived from the formulation of the technical active ingredient in acetone/water (50:50) solution containing 0.5% Tween 20 (polyoxyethelyene sorbitan monolaurate, CAS RN 9005-64-5). The test plants were then grown in a glasshouse under controlled conditions (at 24/16° C., day/night; 14 hours light; 65% humidity) and watered twice daily. After 13 days, the test was evaluated (5=total damage to plant; 0=no damage to plant).
(§2) ABUTH=Abutilon theophrasti; SOLNI=Solanum nigrum; AMARE=Amaranthus retroflexus; SETFA=Setaria faberi; ALOMY=Alopecurus myosuroides; ECHCG=Echinochloa crus-galli, ZEAMX=zea mays.

[2] = test system: Alopecurus myosuroides; test: as above; details: pre-emergence spray, rate 1000 g/ha, evaluated after 13 days, scale 0-5
Procedure: as §1, §2

[3] = test system: Amaranthus retroflexus; test: as above; details: pre-emergence spray, rate 1000 g/ha, evaluated after 13 days, scale 0-5
Procedure: as §1, §2

[4] = test system: Echinochloa crus-galli; test: as above; details: pre-emergence spray, rate 1000 g/ha, evaluated after 13 days, scale 0-5
Procedure: as §1, §2

[5] = test system: Setaria faberi; test: as above; details: pre-emergence spray, rate 1000 g/ha, evaluated after 13 days, scale 0-5
Procedure: as §1, §2

[6] = test system: zea mays; test: as above; details: pre-emergence spray, rate 1000 g/ha, evaluated after 13 days, scale 0-5
Procedure: as §1, §2

[7] = test system: Abutilon theophrasti; test: Post-emergence herbicidal activity, glasshouse pot test; design: key: 0 = no damage to plant, 5 = total damage to plant; details: Application post-emergence, rate 1000 g/ha, evaluated after 13 days
Procedure: (§3) Seeds of a variety of test species were sown in standard soil in pots. After 8 days cultivation (post-emergence) under controlled conditions in a glasshouse (at 24/16° C., day/night; 14 hours light; 65% humidity), the plants were sprayed with an aqueous spray solution derived from the formulation of the technical active ingredient in acetone/water (50:50) solution containing 0.5% Tween 20 (polyoxyethelyene sorbitan monolaurate, CAS RN 9005-64-5). The test plants were then grown in a glasshouse under controlled conditions (at 24/16° C., day/night; 14 hours light; 65% humidity) and watered twice daily. After 13 days, the test was evaluated (5=total damage to plant; 0=no damage to plant).
as §2

[8] = test system: Alopecurus myosuroides; test: as above; design: key: 0 = no damage to plant, 5 = total damage to plant; details: Application post-emergence, rate 1000 g/ha, evaluated after 13 days
Procedure: as §3, §2

[9] = test system: Amaranthus retroflexus; test: as above; design: key: 0 = no damage to plant, 5 = total damage to plant; details: Application post-emergence, rate 1000 g/ha, evaluated after 13 days
Procedure: as §3, §2

[10] = test system: Echinochloa crus-galli; test: as above; design: key: 0 = no damage to plant, 5 = total damage to plant; details: Application post-emergence, rate 1000 g/ha, evaluated after 13 days
Procedure: as §3, §2

[11] = test system: Setaria faberi; test: as above; design: key: 0 = no damage to plant, 5 = total damage to plant; details: Application post-emergence, rate 1000 g/ha, evaluated after 13 days
Procedure: as §3, §2

[12] = test system: zea mays; test: as above; design: key: 0 = no damage to plant, 5 = total damage to plant; details: Application post-emergence, rate 1000 g/ha, evaluated after 13 days
Procedure: as §3, §2

Row | Compound | ABUTH damage score, application pre-emergence [1] | ALOMY damage score, application pre-emergence [2] | AMARE damage score, application pre-emergence [3] | ECHCG damage score, application pre-emergence [4] | SETFA damage score, application pre-emergence [5] | ZEAMX damage score, application pre-emergence [6] | ABUTH herbicidal damage score [7] | ALOMY herbicidal damage score [8] | AMARE herbicidal damage score [9] | ECHCG herbicidal damage score [10] | SETFA herbicidal damage score [11] | ZEAMX herbicidal damage score [12]
1 | 6-(4-chloro-2-hydroxy-3-methyl-5-oxo-2H-pyrrol-1-yl)-4-(trifluoromethyl)pyridine-3-carbonitrile [AF3] | 0 | 3 | 2 | 4 | 4 | 2 | 5 | 5 | 5 | 5 | 5 | 4
2 | CCO/C=C\c1cnc(N2C(=O)C(Cl)=C(C)C2O)cc1C(F)(F)F (stereo not drawn) [AF1] | 1 | 1 | 4 | 2 | 2 | 1 | 5 | 5 | 5 | 5 | 5 | 2
3 | CC(C)=C(C)c1cnc(N2C(=O)C(Cl)=C(C)C2O)cc1C(F)(F)F (stereo not drawn) [AF2] | 1 | 0 | 3 | 3 | 4 | 0 | 5 | 4 | 5 | 5 | 5 | 1
4 | CC1=C(Cl)C(=O)N(c2nccc(C(F)(F)F)c2F)C1O (stereo not drawn) [AF5] | 4 | 4 | 5 | 4 | 4 | 4 | 5 | 5 | 5 | 5 | 5 | 4
5 | CC(=O)OC1C(C)=C(Cl)C(=O)N1c1cc(C(F)(F)F)ccn1 (stereo not drawn) [AF10] | 5 | 3 | 5 | 5 | 4 | 0 | 5 | 5 | 5 | 5 | 5 | 4
6 | CSc1ccc(N2C(=O)C(Cl)=C(C)C2OC(C)=O)nc1 (stereo not drawn) [AF19] | 0 | 0 | 0 | 0 | 0 | 0 | 3 | 4 | 5 | 3 | 3 | 1
7 | CC1=C(Cl)C(=O)N(c2cc(C(C)C)c(C(=O)OC(C)C)cn2)C1O (stereo not drawn) [AF23] | 1 | 4 | 5 | 5 | 2 | 1 | 4 | 4 | 5 | 5 | 4 | 3
8 | CC1=C(Cl)C(=O)N(c2cc(/C=C/C(C)(C)C)ccn2)C1O (stereo not drawn) [AF26] | 0 | 0 | 0 | 0 | 0 | 0 | 1 | 0 | 1 | 2 | 0 | 2
9 | CC1=C(Cl)C(=O)N(c2cc(C(F)(F)F)cc[n+]2[O-])C1O (stereo not drawn) [AF28] | 0 | 0 | 0 | 0 | 0 | 0 | 3 | 1 | 0 | 1 | 3 | 1
10 | CC(=O)c1ccnc(N2C(=O)C(Cl)=C(C)C2O)c1 (stereo not drawn) [AF30] | 3 | 1 | 3 | 2 | 1 | 1 | 1 | 2 | 1 | 2 | 3 | 1
11 | CC1=C(Cl)C(=O)N(c2cc(C(C)(C)F)ccn2)C1O (stereo not drawn) [AF31] | 5 | 3 | 5 | 4 | 5 | 2 | 5 | 5 | 5 | 5 | 5 | 5
12 | CC1=C(Cl)C(=O)N(c2cc(C(C)(F)F)ccn2)C1O (stereo not drawn) [AF32] | 5 | 3 | 5 | 4 | 5 | 2 | 5 | 4 | 5 | 5 | 5 | 4
13 | CC1=C(Cl)C(=O)N(c2cc(C(F)F)ccn2)C1O (stereo not drawn) [AF34] | 5 | 3 | 3 | 5 | 5 | 2 | 5 | 5 | 4 | 5 | 5 | 3
14 | CC1=C(Cl)C(=O)N(c2cc(C(C)(C)C)ccn2)C1O (stereo not drawn) [AF36] | 5 | 4 | 5 | 5 | 5 | 2 | 5 | 4 | 3 | 5 | 5 | 4
15 | CC1=C(Cl)C(=O)N(c2cc(C(F)(F)F)cc(Cl)n2)C1O (stereo not drawn) [AF37] | 0 | 3 | 0 | 0 | 1 | 0 | 2 | 4 | 0 | 4 | 4 | 1
